Laboratory results: PubChem BioAssay (NCI)
Values joined by “and” are separate entries in the source; they are usually repeats but may differ in a detail not shown here. Equal values may be shown once.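 Exposure lasted 48 hours, with cells grown in 96-well plates and compounds tested at five concentrations. GI50 is the concentration that inhibits growth by half. TGI is the concentration that stops growth completely.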

Experiments:
Test in all cases: growth of human tumour cells (NCI), 48 h
A498 renal = tested on: A498 renal
K-562 leukemia = tested on: K-562 leukemia
MDA-MB-435 = tested on: MDA-MB-435
MOLT-4 leukemia = tested on: MOLT-4 leukemia
NCI-H460 lung = tested on: NCI-H460 lung
OVCAR-4 ovarian = tested on: OVCAR-4 ovarian
RXF 393 renal = tested on: RXF 393 renal
SK-MEL-2 melanoma = tested on: SK-MEL-2 melanoma
UACC-62 melanoma = tested on: UACC-62 melanoma
UO-31 renal = tested on: UO-31 renal

Row | SMILES | TGI (A498 renal) | TGI (K-562 leukemia) | TGI (MDA-MB-435) | TGI (MOLT-4 leukemia) | TGI (NCI-H460 lung) | TGI (OVCAR-4 ovarian) | TGI (RXF 393 renal) | TGI (SK-MEL-2 melanoma) | TGI (UACC-62 melanoma) | TGI (UO-31 renal) | GI50 (A498 renal) | GI50 (K-562 leukemia) | GI50 (MDA-MB-435) | GI50 (MOLT-4 leukemia) | GI50 (NCI-H460 lung) | GI50 (OVCAR-4 ovarian) | GI50 (RXF 393 renal) | GI50 (SK-MEL-2 melanoma) | GI50 (UACC-62 melanoma) | GI50 (UO-31 renal)
1 | Cc1ccc2c(c1)C=CC(C#N)N2C(=O)Oc1ccccc1 (stereo not drawn) | 55.4 µM | 64.4 µM | 29.7 µM | 54.9 µM | > 100 µM | 70.7 µM | > 100 µM | 61.9 µM | > 100 µM | > 100 µM | – | – | – | – | – | – | – | – | – | –
2 | CCN(CC)CC[n+]1cc2cc(OC)c(OC)cc2c2ccc3cc4c(cc3c21)OCO4 | 2.92 µM | – | 2.14 µM | 4.64 µM | 1.04 µM | 4.16 µM | 2.45 µM | 4.59 µM | 4.89 µM | 8.6 µM | 0.514 µM | 0.288 µM | 0.675 µM | 0.37 µM | 0.288 µM | 0.775 µM | 0.783 µM | 1.64 µM | 1.22 µM | 2.61 µM
3 | O=S(=O)(CCCCl)SCCCCl | > 100 µM | 47.5 µM | > 67.2 µM | 38.5 µM | > 100 µM | 24.2 µM | 57.8 µM | > 100 µM | > 100 µM | > 100 µM | – | – | – | – | – | – | – | – | – | –
4 | O=c1ccnc(SCc2ccc(Cl)cc2)[nH]1 | > 100 µM | > 100 µM | > 100 µM | > 100 µM | > 100 µM | > 100 µM | > 100 µM | > 100 µM | > 100 µM | > 100 µM | – | – | – | – | – | – | – | – | – | –
5 | Nc1ccc(-c2ccc(-c3nc4cc(Cl)c(Cl)cc4[nH]3)cc2)cc1 | > 70.7 µM | > 100 µM | > 84.7 µM | > 85 µM | > 31.9 µM | > 100 µM | 38.8 µM | > 100 µM | > 45 µM | 13.3 µM | 18 µM | 4.32 µM | 0.199 µM | 1.66 µM | 0.878 µM | 3.01 µM | 5.71 µM | 2.46 µM | < 0.0215 µM | 0.674 µM
6 | O=C(O)CCSC(=S)Nc1ccc([N+](=O)[O-])cc1 | > 100 µM | > 63 µM | 61.3 µM | > 68 µM | > 100 µM | > 100 µM | > 100 µM | > 100 µM | 46.7 µM | > 100 µM | – | – | – | – | – | – | – | – | – | –
7 | CCCCCC/C=C1\CCC(CN(C)C)C1=O (stereo not drawn) | 32.1 µM | 7.64 µM | 21.6 µM | 18.7 µM | 35.1 µM | 45.3 µM | 9.8 µM | 26.6 µM | 14.9 µM | 28.9 µM | – | – | – | – | – | – | – | – | – | –
8 | CC(C)(C)c1cc(-c2nc3c(F)c(F)c(F)c(F)c3[nH]2)cc(C(C)(C)C)c1O | > 100 µM | > 100 µM | > 100 µM | > 100 µM | > 100 µM | > 100 µM | > 100 µM | > 100 µM | > 100 µM | > 100 µM | > 100 µM | > 100 µM | > 100 µM | > 100 µM | > 100 µM | > 100 µM | > 100 µM | > 100 µM | > 100 µM | > 100 µM
9 | CCCCCCNCCCNc1c2ccccc2nc2cccc([N+](=O)[O-])c12 | 0.321 µM and 0.327 µM | 0.0212 µM | 0.0226 µM and 0.0234 µM | 0.0854 µM and 0.0641 µM | 0.0218 µM | 0.0419 µM and 0.0486 µM | 0.0312 µM | 0.0331 µM and 0.0231 µM | 0.131 µM and 0.0618 µM | 0.393 µM and 0.331 µM | 0.0931 µM | – | – | – | – | 0.0115 µM | – | – | 0.0181 µM | 0.145 µM
10 | Oc1c(I)cc(I)cc1CN(Cc1ccccn1)Cc1ccccn1 | 6.19 µM | 14.6 µM | 18.7 µM | 10.7 µM | 8.68 µM | > 44.1 µM | 9.76 µM | 12.2 µM | 5.73 µM | 3.07 µM | 1.29 µM | 0.548 µM | 2.19 µM | 0.89 µM | 0.456 µM | 0.658 µM | 1.86 µM | 2.08 µM | 0.499 µM | 0.554 µM
11 | CN1CCN(CC(=O)N2c3cccc4cccc(c34)N(C(=O)CN3CCN(C)CC3)C2c2cn(-c3ccccc3)nc2-c2cccc([N+](=O)[O-])c2)CC1 | 3.95 µM | 3.81 µM | 3.93 µM | 5.94 µM | 4.98 µM | 5.24 µM | 3.09 µM | 4.04 µM | 3.38 µM | 2.75 µM | 1.92 µM | 1.22 µM | 1.98 µM | 2.21 µM | 2.23 µM | 2.25 µM | 1.58 µM | 1.95 µM | 1.77 µM | 1.32 µM
12 | CCOCCOC[C@H]1CCCN(c2ccnc3sc(C(N)=O)c(N)c23)C1 | > 100 µM | > 100 µM | > 100 µM | > 100 µM | > 100 µM | > 100 µM | > 100 µM | > 100 µM | > 100 µM | > 100 µM | > 100 µM | 8.44 µM | 29.8 µM | 10.1 µM | > 100 µM | 13.5 µM | 47.8 µM | 11.1 µM | 6.51 µM | 15.3 µM
13 | C=C(CN(C)C)C(=O)c1ccc(Oc2ccccc2)cc1 | 42.1 µM | 12.5 µM | 10.3 µM | 2.05 µM | 51.6 µM | 20.9 µM | 7.17 µM | 19.6 µM | 13 µM | 8.72 µM | – | – | – | – | – | – | – | – | – | –
14 | C[C@@H]1OCC2(CCN(c3cnc(Sc4ccnc(N)c4Cl)c(N)n3)CC2)[C@@H]1N | 4.6 µM | > 100 µM | > 100 µM | > 100 µM | > 100 µM | > 100 µM | > 67.6 µM | > 100 µM | > 100 µM | > 100 µM | 0.128 µM | 0.397 µM | > 100 µM | > 90.9 µM | > 100 µM | 26.9 µM | 3.46 µM | > 100 µM | > 100 µM | 0.926 µM
15 | Nc1nc(-c2ccc(Cl)cc2)cc(-c2ccccc2)c1-c1nc2ccccc2o1 | 30.5 µM | > 100 µM | 26.9 µM | 11.4 µM | > 100 µM | 28 µM | 16.9 µM | 39.2 µM | 30.7 µM | 26.4 µM | 15.8 µM | 3.69 µM | 9.45 µM | 3.3 µM | 3.98 µM | 11.5 µM | 3.69 µM | 15.5 µM | 15.8 µM | 10.3 µM
16 | C=C1C(=O)O[C@H]2[C@H]1CC/C(COC(=O)NCc1cc(OC)cc(OC)c1)=C\CC[C@@]1(C)O[C@@H]21 | 5.8 µM | 5.94 µM | 4.11 µM | 5.55 µM | 11.6 µM | 5.24 µM | 2.07 µM | 3.54 µM | 2.56 µM | 2.95 µM | 2.11 µM | 1.56 µM | 1.99 µM | 2 µM | 3.01 µM | 1.7 µM | 0.687 µM | 1.66 µM | 0.663 µM | 1.51 µM
17 | C=CCSSc1ncnc2c1ncn2C1OC(CO)C(O)C1O (stereo not drawn) | > 100 µM | > 39.4 µM | > 100 µM | 6.75 µM | > 100 µM | > 100 µM | 27.1 µM | > 41.9 µM | > 100 µM | 16.8 µM | 39.3 µM | 1.2 µM | 2.38 µM | 1.54 µM | 4.49 µM | 0.782 µM | 6.93 µM | 6.25 µM | 1.64 µM | 3.63 µM
18 | Cc1cc(N(CCOS(C)(=O)=O)CCOS(C)(=O)=O)ccc1C=Nc1ccc(-c2csc(-c3ccc(Br)cc3)n2)cc1 | 6.4 µM | > 97.1 µM | 58.8 µM | > 69.5 µM | 12.7 µM | 84.9 µM | 6.55 µM | 61.7 µM | 22.3 µM | 33.6 µM | – | – | – | – | – | – | – | – | – | –
19 | O=S(=O)(Nc1ccccn1)c1ccc(N=Nc2ccc(O)c3ncccc23)cc1 | 5.73 µM | > 37.7 µM | 8.41 µM | > 23.9 µM | 4.59 µM | 12.2 µM | 11.9 µM | 1.64 µM | 3.03 µM | 3.33 µM | 1.77 µM | 0.734 µM | 0.638 µM | 1.37 µM | 0.891 µM | 2.33 µM | 1.24 µM | 0.463 µM | 0.582 µM | 0.696 µM
20 | COc1ccc2nc(-c3cc4c([nH]c5ccccc54)c(-c4ccc(F)c(F)c4)n3)[nH]c2c1 | 56.6 µM | 24.4 µM | 15.4 µM | 7.39 µM | 12.5 µM | 24 µM | 13.1 µM | 34.9 µM | 10.2 µM | 16.1 µM | 9.84 µM | 3.35 µM | 3.69 µM | 2.03 µM | 2.97 µM | 6.3 µM | 3.46 µM | 12.1 µM | 2.76 µM | 1.46 µM
21 | Nc1c2ccccc2nc2ccccc12 (tested in a mixture with another compound) | 2.62 µM | 12.1 µM | 9 µM | 13.1 µM | 8.99 µM | 6.9 µM | 3.27 µM | 4.23 µM | 3.74 µM | 3.84 µM | 1.12 µM | 3.81 µM | 2.57 µM | 2.32 µM | 2.12 µM | 1.84 µM | 1.28 µM | 2.16 µM | 1.62 µM | 1.41 µM
